Read-outs that look alike come from different tables or passages of the source.
Legend:
[1] = target: T1, K-RasG12C (1-169) (Homo sapiens, UniProt P01116, G12C); assay: Disulfide library (tethering) screen, covalent modification by mass spectrometry; assay type: binding; conditions: 200 micM BME; read-out: Potency/ Labeling (EC50 at 200 micM BME) Tethering
T1 construct: Un-tagged recombinant K-Ras G12C (1-169) at 4 μM in Buffer A; hexahistidine (cleaved yes); made in house; host or cells: Escherichia coli BL21 (DE)

[2] = target: T1, K-RasG12C (1-169); assay: Mass spectrometric screen for extent of covalent labeling; assay type: binding; conditions: for percent covalent labeling at 10 µM: 10 micromolar; for Labeling % (10 micM) 24h: 10 micM compound, (plate) or (single) measurement
Experimental: Un-tagged recombinant K-Ras G12C (1-169) at 4 μM in Buffer A was reacted with inhibitors at 200 μM or 10 μM (2% DMSO final). At 2, 6, and 24 hrs, 10 μL aliquots were removed and the reactions were stopped by addition of 1 μL 2% formic acid. The extent of modification was determined by mass spectrometry.

[3] = system: binding of RasGTP to Raf1-RBD; assay: Raf1-RBD pull-downs; conditions: after EDTA-catalyzed exchange
[4] = system: G12C cell lines; assay: Proliferation of human lung cancer cell lines; assay type: cell-based; conditions: 24 hr treatment (0.5% FBS), 48 hr washout (10% FBS)
[5] = 6 h, 6 hrs, read-out: Percent reduction in activity of compound at 10 micromolar relative to control (no compound), 6 hrs
[6] = 24 h, 24 hrs, read-out: Percent reduction in activity of compound at 10 micromolar relative to control (no compound), 24 hrs
[7] = 2 h, 2 hrs, read-out: Percent reduction in activity of compound at 10 micromolar relative to control (no compound), 2 hrs

| EC50 [1] [µM] | percent covalent labeling at 10 µM [2, 5] [%] | percent covalent labeling at 10 µM [2, 6] [%] | percent covalent labeling at 10 µM [2, 7] [%] | Labeling % (10 micM) 24h ([2]; Table 5) | Labeling % (10 micM) 24h [2] | Compound | binding of RasGTP to Raf1-RBD [3] | sensitivity of proliferation of G12C cell lines [4] |
| --- | --- | --- | --- | --- | --- | --- | --- | --- |
| – | – | 40 to 60 | – | – | – | C=CS(=O)(=O)NC1CCN(C(=O)COc2cc(C(C)(C)O)c(Cl)cc2Cl)CC1 [Ras-074] | – | – |
| – | 5 to 20 | > 60 | – | – | – | C=CS(=O)(=O)NC1CCN(C(=O)CNc2cc(OC)c(Cl)cc2I)CC1 [Ras-077] | – | – |
| – | > 60 | > 60 | 20 to 40 | +++++ (single) (60% < +++++) | – | C=CS(=O)(=O)NC1CCN(C(=O)CNc2cc(I)c(Cl)cc2OC)CC1 [Ras-079] | – | – |
| – | 20 to 40 | > 60 | – | – | – | C=CS(=O)(=O)NC1CCN(C(=O)CNc2cc(-c3ccccc3)c(Cl)cc2OC)CC1 [Ras-082] | – | – |
| – | > 60 | > 60 | 20 to 40 | – | – | C=CS(=O)(=O)NC1CCN(C(=O)CNc2cc(I)c(Cl)cc2O)CC1 [Ras-084] | – | – |
| – | 20 to 40 | > 60 | 5 to 20 | – | – | C=CS(=O)(=O)NC1CCN(C(=O)CNc2cc(CC)c(Cl)cc2OC)CC1 [Ras-085] | – | – |
| – | – | 40 to 60 | – | – | – | C=CS(=O)(=O)NC1CCN(C(=O)CNc2cc(-c3ccccc3)c(Cl)cc2I)CC1 [Ras-086] | – | – |
| – | ≤ 5 | ≤ 5 | ≤ 5 | – | – | C=CS(=O)(=O)NC1CCN(C(=O)COc2c(Cl)cc(Cl)c3cccnc23)CC1 [UP-I-154A] | – | – |
| – | ≤ 5 | ≤ 5 | ≤ 5 | – | – | C=CS(=O)(=O)NC1CCN(C(=O)COc2ncnc3sc(C)cc23)CC1 [UP-I-154K] | – | – |
| – | ≤ 5 | ≤ 5 | ≤ 5 | – | – | C=CS(=O)(=O)NC1CCN(C(=O)COc2c(Cl)cc(Cl)cc2NC(=O)OC(C)(C)C)CC1 [UP-I-162B] | – | – |
| – | ≤ 5 | ≤ 5 | ≤ 5 | – | – | C=CS(=O)(=O)NC1CCN(C(=O)COc2c(Cl)cc(Cl)cc2-c2ccno2)CC1 [UP-I-165B] | – | – |
| – | ≤ 5 | ≤ 5 | ≤ 5 | – | – | C=CS(=O)(=O)NC1CCN(C(=O)COc2ccc3nncn3n2)CC1 [UP-I-165C] | – | – |
| – | 5 to 20 | 40 to 60 | ≤ 5 | ++++ (plate) (40% < ++++ <=60%) | ++++ (plate) (40% < ++++ <=60%) | C=CS(=O)(=O)NC1CCN(C(=O)COc2c(Cl)cc(Cl)c3c2OC(C)(C)O3)CC1 [UP-I-177C] | – | – |
| – | ≤ 5 | > 60 | ≤ 5 | – | – | C=CS(=O)(=O)NC1CCN(C(=O)COc2c(Br)cc(Br)c3c2OC(C)(C)O3)CC1 [UP-I-177D] | – | – |
| – | ≤ 5 | 5 to 20 | ≤ 5 | – | – | C=CS(=O)(=O)NC1CCN(C(=O)COc2c(N)cc(Cl)cc2Cl)CC1 [UP-I-185b] | – | – |
| – | ≤ 5 | 20 to 40 | ≤ 5 | +++ (single) (20%< +++ <=40%) | – | C=CS(=O)(=O)NC1CCN(C(=O)CNc2c(Cl)cc(Cl)c3nonc23)CC1 [UP-I-187] | – | – |

The next lines start with the molecule.

| Compound | EC50 [1] [µM] | percent covalent labeling at 10 µM [2, 5] [%] | percent covalent labeling at 10 µM [2, 6] [%] | percent covalent labeling at 10 µM [2, 7] [%] | Labeling % (10 micM) 24h ([2]; Table 5) | Labeling % (10 micM) 24h [2] | binding of RasGTP to Raf1-RBD [3] | sensitivity of proliferation of G12C cell lines [4] |
| --- | --- | --- | --- | --- | --- | --- | --- | --- |
| O=C(NCCS)C1CCN(C(=O)COc2ccc(Cl)cc2Cl)CC1 [JO-01-148] | 40 to 60 | – | – | – | – | – | – | – |
| C=CC(=O)N1CCN(C(=O)CNc2cc(Cl)c(Cl)cc2O)CC1 [Ras-073] | – | 20 to 40 | > 60 | – | – | – | – | – |
| C=CC(=O)N1CCN(C(=O)CNc2cc(I)c(Cl)cc2OC)CC1 [Ras-080] | – | – | 20 to 40 | – | – | – | – | – |
| C=CC(=O)N1CCN(C(=O)CNc2cc(I)c(Cl)cc2O)CC1 [Ras-083] | – | 20 to 40 | > 60 | – | – | – | impairs binding of RasGTP to Raf1-RBD | significantly more sensitive |
| C=CS(=O)(=O)NC1CCN(C(=O)CSc2cn(CC)c3ccccc23)CC1 [UP-I-154B] | – | ≤ 5 | ≤ 5 | ≤ 5 | – | – | – | – |
| C=CS(=O)(=O)NC1CCN(C(=O)CSc2nc3cc(C)ccc3[nH]2)CC1 [UP-I-160B] | – | ≤ 5 | ≤ 5 | ≤ 5 | – | – | – | – |
| C=CS(=O)(=O)NC1CCN(C(=O)CSc2nnc(C)s2)CC1 [UP-I-164A] | – | ≤ 5 | ≤ 5 | ≤ 5 | – | – | – | – |
| C=CS(=O)(=O)NC1CCN(C(=O)CSc2nnc(C)o2)CC1 [UP-I-164B] | – | ≤ 5 | ≤ 5 | ≤ 5 | – | – | – | – |
| C=CS(=O)(=O)NC1CCN(C(=O)CSc2n[nH]c(C)n2)CC1 [UP-I-164C] | – | ≤ 5 | ≤ 5 | ≤ 5 | – | – | – | – |
| C=CS(=O)(=O)NC1CCN(C(=O)CSc2nc(C)cs2)CC1 [UP-I-165D] | – | ≤ 5 | ≤ 5 | ≤ 5 | – | – | – | – |
| C=CS(=O)(=O)NC1CCN(C(=O)CNc2c(Cl)cc(Cl)c3nsnc23)CC1 [UP-I-185a] | – | 20 to 40 | > 60 | 5 to 20 | +++++ (single) (60% < +++++) | +++++ (single) (60% < +++++) | – | – |

From patent US11008334B2, “Compositions and methods for treating cancer” (The Regents of the University of California, priority 2012, dated 2021)
